In patent publication US20110301168A1, “CYCLOALKANE[B]AZAINDOLE ANTAGONISTS OF PROSTAGLANDIN D2 RECEPTORS” (AMIRA PHARMACEUTICALS, INC., priority 2008, published 2011):

Target: T1, human DP2 receptor (Homo sapiens, UniProt Q9Y5Y4)
T1 construct: expressed in transfected cells; membrane preparation
T1 sequence (Q9Y5Y4 1-395): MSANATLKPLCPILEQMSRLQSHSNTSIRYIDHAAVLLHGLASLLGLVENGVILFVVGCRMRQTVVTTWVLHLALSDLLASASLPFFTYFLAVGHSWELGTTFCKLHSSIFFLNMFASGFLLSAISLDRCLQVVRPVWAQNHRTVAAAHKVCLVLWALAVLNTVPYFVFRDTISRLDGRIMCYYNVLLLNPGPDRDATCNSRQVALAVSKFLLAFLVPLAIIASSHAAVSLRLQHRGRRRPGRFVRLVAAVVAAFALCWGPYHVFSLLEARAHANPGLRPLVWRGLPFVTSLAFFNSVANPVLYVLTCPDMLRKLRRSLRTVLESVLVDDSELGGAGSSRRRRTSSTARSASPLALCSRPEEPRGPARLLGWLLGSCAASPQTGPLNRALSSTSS
Test: DP2/CRTH2 radioligand binding assay using [3H]PGD2
Conditions: membranes of HEK293 cells expressing recombinant human DP2, 1 nM [3H]PGD2; read-out: hDP2
Protocol: The ability of a compound to bind to the human DP2 receptor is assessed via a radioligand binding assay using [^3H]PGD2. HEK293 cells stably expressing recombinant human DP2 are resuspended in 10 mM Hepes, 7.4 containing 1 mM DTT, lysed and centrifuged at 75,000×g to pellet the membranes. The membranes are resuspended in 10 mM Hepes, 7.4 containing 1 mM DTT and 10% glycerol to approximately 5 mg protein/ml. Membranes (2-10 μg protein/well) are incubated in 96-well plates with 1 nM [^3H]PGD2 and test compound in Assay Buffer (50 mM Hepes, 10 mM MnCl2, 1 mM EDTA, plus or minus 0.2% human serum albumin, pH 7.4) for 60 minutes at room temperature. The reactions are terminated by rapid filtration through Whatman GF/C glass fibre filter plates. The filter plates were pre-soaked in 0.33% polythylenimine for 30 minutes at room temperature then washed in Wash Buffer (50 mM Hepes, 0.5 M NaCl pH 7.4) prior to harvesting. After harvesting, the filter plates are washed 3 times with 1 ml cold Wash Buffer then dried. Scintillant is then added to the plates and the radioactivity retained on the filters is determined on a Packard TopCount (Perkin Elmer). Specific binding is determined as total radioactive binding minus non-specific binding in the presence of 10 μM PGD2. IC50s were determined using GraphPad prism analysis of drug titration curves.

SMILES	IC50 [nM]
CN(C1CCc2c(c3ncccc3n2CC(=O)O)C1)S(=O)(=O)c1ccc(F)cc1 (racemic) [Compound 9, {8-[N-(4-fluoro-benzenesulfonyl)-N-methyl-amino]-6,7,8,9-tetrahydro-pyrido[3,2-b]indol-5-yl}-acetic acid]	< 100
CN([C@@H]1CCc2c(c3ncccc3n2CC(=O)O)C1)S(=O)(=O)c1ccc(F)cc1 (single isomer, unassigned) [Compound 10]	< 100
CN([C@H]1CCc2c(c3ncccc3n2CC(=O)O)C1)S(=O)(=O)c1ccc(F)cc1 (single isomer, unassigned) [Compound 11]	> 100
CN(C1CCc2c(c3cccnc3n2CC(=O)O)C1)S(=O)(=O)c1ccc(F)cc1 (stereo not drawn) [Compound 23, {6-[N-(4-fluoro-benzenesulfonyl)-N-methyl-amino]-7,8-dihydro-5H-pyrido[2,3-b]indol-9(6H)-yl}-acetic acid]	> 100
CN(C1CCc2c(c3nccnc3n2CC(=O)O)C1)S(=O)(=O)c1ccc(F)cc1 (stereo not drawn) [Compound 24, {8-[N-(4-fluoro-benzenesulfonyl)-N-methyl-amino]-6,7,8,9-tetrahydro-5H-pyrazino [2,3-b]indol-5-yl}acetic acid]	> 100

Test system: mouse model of allergic rhinitis
Test: Mouse allergic rhinitis model (OVA-induced sneezing and nasal rubbing)
Assay type: in vivo
Conditions: 10 mg/kg administered as the sodium salt, oral gavage 1 hour prior to OVA challenge; significantly reduced, approximately
Protocol: The compounds ability to inhibit allergen-induced sneezing and nasal rubbing is assessed using a mouse model of allergic rhinitis. Methods were adapted from those detailed in Nakaya, M., et al. 2006, Laboratory Investigation, 86:917-926. Female BALB/c mice (20-25 g) are immunized by an intraperitoneal injection (i.p.) of 10 μg ovalbumin (OVA) complexed with alum in a volume 0.2 mL on days 0 and 7. Fourteen days later (day 21) mice are challenged intranasally with 20 μl of a 10 mg/mL solution of OVA. The challenge period occurs daily from days 21 to day 23. Mice (5-7/group) are randomly assigned to receive either compound or vehicle and are treated by oral gavage 1 hour prior to OVA challenge. The number of sneezes and nasal rubs are counted by an independent blinded observe during a period of 8 minutes immediately following OVA challenge on days 21, 23 and […]. A significant increase in allergen-induced sneezing and nasal rubbing occurs over the 3-day challenge period. Inhibition of this effect by select compounds is determined statistically using Graphpad prism.

SMILES	reduction of sneezing and nasal rubs versus vehicle-treated mice
CN(C1CCc2c(c3ncccc3n2CC(=O)O)C1)S(=O)(=O)c1ccc(F)cc1 (racemic) [Compound 9, {8-[N-(4-fluoro-benzenesulfonyl)-N-methyl-amino]-6,7,8,9-tetrahydro-pyrido[3,2-b]indol-5-yl}-acetic acid]	40-50%
